The values below come from patent US9809573B2, “Substituted pyridine derivatives useful as GSK-3 inhibitors” (priority 2013, dated 2017).

Like-named read-outs stand apart in the source and are kept apart here. Where only a bound is given, the exact number is not on record here.

For one test, the system named is pTau. The experiment in a line: pTau assay (method not described). The test is classed as cell-based.
Another test addresses GSK3α (Homo sapiens, UniProt P49840). The experiment in a line: biochemical. In outline:
(§1)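 Readout: electrophoretic resolution of phosphorylated from unphosphorylated peptide on a LabChip3000. Reactions incubated 20 h at room temperature before termination with 35 mM EDTA. Eleven-concentration curves gave IC50 via non-linear regression.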

For a further test, the target named is GSK3β (Homo sapiens, UniProt P49841). The experiment in a line: GSK3β kinase assay (Caliper LabChip3000, fluoresceinated peptide substrate). In kind it is biochemical. Summed up:
as §1

Where [1] appears, read: second value of the cell, 250 pM enzyme, 20 uM ATP, 20 hours at room temperature, read-out: GSK3β/α (nM): GSK3α IC50.
The mark [2] stands for this setting: first value of the cell, 250 pM enzyme, 20 uM ATP, 20 hours at room temperature, read-out: GSK3β/α (nM): GSK3β IC50.

GSK3α, sequence (P49840 whole entry, species assumed): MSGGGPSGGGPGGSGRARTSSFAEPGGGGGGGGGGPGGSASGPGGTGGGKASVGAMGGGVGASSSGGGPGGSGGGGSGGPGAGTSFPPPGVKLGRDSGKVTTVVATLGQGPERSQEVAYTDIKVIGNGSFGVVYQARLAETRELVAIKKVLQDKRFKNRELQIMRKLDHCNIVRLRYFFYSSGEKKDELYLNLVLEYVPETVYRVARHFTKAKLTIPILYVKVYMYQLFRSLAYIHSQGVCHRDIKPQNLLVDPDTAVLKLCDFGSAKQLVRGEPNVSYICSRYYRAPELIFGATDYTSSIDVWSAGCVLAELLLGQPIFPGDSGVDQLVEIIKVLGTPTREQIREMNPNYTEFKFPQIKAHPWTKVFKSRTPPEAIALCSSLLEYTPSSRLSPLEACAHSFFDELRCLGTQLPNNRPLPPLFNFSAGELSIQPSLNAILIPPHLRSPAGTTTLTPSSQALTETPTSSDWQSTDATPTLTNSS
GSK3β, sequence (P49841 whole entry, species assumed): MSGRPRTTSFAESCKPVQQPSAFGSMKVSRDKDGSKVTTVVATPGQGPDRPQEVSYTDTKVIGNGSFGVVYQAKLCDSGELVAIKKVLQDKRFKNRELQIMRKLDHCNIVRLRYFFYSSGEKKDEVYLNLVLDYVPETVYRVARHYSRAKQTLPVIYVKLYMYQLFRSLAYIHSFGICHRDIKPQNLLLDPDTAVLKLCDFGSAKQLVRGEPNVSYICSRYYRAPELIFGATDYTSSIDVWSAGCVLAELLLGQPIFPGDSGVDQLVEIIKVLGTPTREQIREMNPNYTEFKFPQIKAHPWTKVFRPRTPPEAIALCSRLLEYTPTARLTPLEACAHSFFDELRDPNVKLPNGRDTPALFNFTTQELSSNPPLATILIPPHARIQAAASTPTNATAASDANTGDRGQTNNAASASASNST

On to `N#Cc1ccc(-c2cncc(NC(=O)c3ccnc(NC(=O)C4CC4)c3)c2)cc1` [Example 115, N-(5-(4-cyanophenyl)pyridin-3-yl)-2-(cyclopropanecarboxamido)isonicotinamide], for which the IC50 with pTau (read-out: pTau) came out at 780 nM; on GSK3α (setting [1]), 4.3 nM; at GSK3β (setting [2]) it was 4.1 nM.
Consider `CC(=O)c1ccncc1NC(=O)c1ccnc(NC(=O)C2CC2)c1` [Example 14, N-(4-acetylpyridin-3-yl)-2-(cyclopropanecarboxamido)isonicotinamide], for which the values for the IC50 in the test on pTau (read-out: pTau), on GSK3α (setting [1]) and against GSK3β were 76 nM, 0.54 nM and 0.85 nM, respectively.
For the compound `C[C@@H]1COCCN1c1ccncc1NC(=O)c1ccnc(NC(=O)C2CC2)c1` [Example 52, (R)-2-(cyclopropanecarboxamido)-N-(4-(3-methylmorpholino)pyridin-3-yl)isonicotinamide], the IC50 stood at 12 nM in the test with pTau (read-out: pTau), 0.21 nM at GSK3α (setting [1]) and 0.49 nM on GSK3β.
Regarding `Cc1c(NC(=O)c2ccnc(NC(=O)C3CC3)c2)cnn1C` [Example 175, 2-(cyclopropanecarboxamido)-N-(1,5-dimethyl-1H-pyrazol-4-yl)isonicotinamide], the values for the IC50 in the test with pTau (read-out: pTau), on GSK3α (setting [1]) and on GSK3β (setting [2]) were 3700 nM, 33 nM and 68 nM, respectively.
Consider `CCOc1ccncc1NC(=O)c1ccnc(NC(=O)C2CCC2)c1` [Example 211, 2-(Cyclobutanecarboxamido)-N-(4-ethoxypyridin-3-yl)isonicotinamide], for which the IC50 in the test with pTau (read-out: pTau) worked out at 72 nM; on GSK3α (setting [1]) it was 0.9 nM; on GSK3β, 2.2 nM.
As to `Cc1cc(NC(=O)c2ccnc(NC(=O)C3CC3)c2)cnc1F` [Example 8, 2-(Cyclopropanecarboxamido)-N-(6-fluoro-5-methylpyridin-3-yl)isonicotinamide], the IC50 with pTau (read-out: pTau) is 1800 nM; on GSK3α (setting [1]), 24 nM; at GSK3β (setting [2]), 48 nM.
In the case of `O=C(Nc1cnccc1-c1cc(Br)cc(Br)c1)c1ccnc(NC(=O)C2CC2)c1` [Example 167, 2-(cyclopropanecarboxamido)-N-(4-(3,5-dibromophenyl)pyridin-3-yl)isonicotinamide], the IC50 in the test with pTau (read-out: pTau) came to 5500 nM; at GSK3α (setting [1]), 9.3 nM; on GSK3β (setting [2]) it was 20 nM.
With `CC(C)C(=O)Nc1cc(C(=O)Nc2cnccc2OCC(C)(F)F)ccn1` [Example 202, N-(4-(2,2-Difluoropropoxy)pyridin-3-yl)-2-isobutyramidoisonicotinamide], the IC50 stood at 50 nM with pTau (read-out: pTau (nM)), 0.46 nM on GSK3α and 1 nM at GSK3β.
With `O=C(Nc1cncc(-c2cncc(F)c2)c1)c1ccnc(NC(=O)C2CC2)c1` [Example 161, 2-(cyclopropanecarboxamido)-N-(5′-fluoro-[3,3′-bipyridin]-5-yl)isonicotinamide], the IC50 was 175 nM in the test with pTau (read-out: pTau), 0.6 nM at GSK3α (setting [1]) and 1.7 nM at GSK3β (setting [2]).
On to `CC(C)C(=O)Nc1cc(C(=O)Nc2cnccc2N2CCC(F)(F)CC2)c(F)cn1` [Example 206, N-(4-(4,4-difluoropiperidin-1-yl)pyridin-3-yl)-5-fluoro-2-isobutyramidoisonicotinamide], for which the IC50 with pTau (read-out: pTau) is 190 nM; at GSK3α (setting [1]) it was 2.1 nM; on GSK3β (setting [2]) it was 3 nM.
With `NC(=O)c1cnc(NC(=O)c2ccnc(NC(=O)C3CC3)c2)s1` [Example 183, 2-(2-(cyclopropanecarboxamido)isonicotinamido)thiazole-5-carboxamide], the values for the IC50 with pTau (read-out: pTau), on GSK3α (setting [1]) and on GSK3β (setting [2]) were at least 10000 nM, 200 nM and 530 nM, respectively.
Regarding `O=C(Nc1cnccc1-c1ccccc1)c1ccnc(NC(=O)C2CCCC2)c1` [Example 227, 2-(Cyclopentanecarboxamido)-N-(4-phenylpyridin-3-yl)isonicotinamide], the IC50 in the test on pTau (read-out: pTau (nM)) amounted to 47 nM; at GSK3α, 1.4 nM; on GSK3β, 1.6 nM.
For the compound `CC(C)C(=O)Nc1cc(C(=O)Nc2cnccc2OCCN2CCOCC2)ccn1` [Example 189, 2-Isobutyramido-N-(4-(2-morpholinoethoxy)pyridin-3-yl)isonicotinamide], the IC50 stood at 99 nM with pTau (read-out: pTau), 1.1 nM on GSK3α (setting [1]) and 2.3 nM on GSK3β.
`CC(C)C(=O)Nc1cc(C(=O)Nc2cncc(-c3cccc(F)c3F)c2)ccn1` [Example 194, N-(5-(2,3-difluorophenyl)pyridin-3-yl)-2-isobutyramidoisonicotinamide]: the IC50 in the test with pTau (read-out: pTau) is 140 nM; at GSK3α (setting [1]), 1.4 nM; on GSK3β (setting [2]) it was 3.8 nM.
As for `COc1ccnc(-c2ccccc2)c1NC(=O)c1ccnc(NC(=O)C2CC2)c1` [Example 62, 2-(Cyclopropanecarboxamido)-N-(4-methoxy-2-phenylpyridin-3-yl)isonicotinamide], the IC50 with pTau (read-out: pTau) was found to be 310 nM; at GSK3α (setting [1]) it was 4.8 nM; at GSK3β (setting [2]), 2.6 nM.
Take `CC(C)C(=O)Nc1cc(C(=O)Nc2cnccc2C(=O)c2ccccc2)ccn1` [Example 196, N-(4-benzoylpyridin-3-yl)-2-isobutyramidoisonicotinamide]: the results for the IC50 in the test with pTau (read-out: pTau), on GSK3α (setting [1]) and at GSK3β (setting [2]) were 520 nM, 5.9 nM and 13 nM, respectively.
`O=C(Nc1cncc(-c2ccnc(F)c2F)c1)c1ccnc(NC(=O)C2CC2)c1` [Example 166, 2-(cyclopropanecarboxamido)-N-(2′,3′-difluoro-[3,4′-bipyridin]-5-yl)isonicotinamide]: the IC50 with pTau (read-out: pTau) came out at 360 nM; at GSK3α (setting [1]) it was 11 nM; at GSK3β (setting [2]), 44 nM.
The like results for `O=C(Nc1cnccc1-c1cc2ccccc2o1)c1ccnc(NC(=O)C2CC2)c1` [Example 95, N-(4-(benzofuran-2-yl)pyridin-3-yl)-2-(cyclopropanecarboxamido)isonicotinamide] were, in that order, 100 nM, 1.4 nM and 1.9 nM.
As to `Cc1ccncc1NC(=O)c1ccnc(NC(=O)C2CC2)c1` [Example 9, 2-(Cyclopropanecarboxamido)-N-(4-methylpyridin-3-yl)isonicotinamide], the IC50 with pTau (read-out: pTau) was 1200 nM; at GSK3α (setting [1]), 22 nM; at GSK3β, 30 nM.
As for `CC(C)C(=O)Nc1cc(C(=O)Nc2cnccc2C(F)c2ccccc2)ccn1` (stereo not drawn) [Example 199, N-(4-(fluoro(phenyl)methyl)pyridin-3-yl)-2-isobutyramidoisonicotinamide], the IC50 in the test on pTau (read-out: pTau) is 720 nM; on GSK3α (setting [1]) it was 12 nM; on GSK3β (setting [2]) it was 10 nM.
For the compound `O=C(Nc1c(-c2ccccc2)ccnc1Cl)c1ccnc(NC(=O)C2CC2)c1` [Example 59, N-(2-chloro-4-phenylpyridin-3-yl)-2-(cyclopropanecarboxamido)isonicotinamide], the figures for the IC50 in the test on pTau (read-out: pTau), at GSK3α (setting [1]) and at GSK3β (setting [2]) were 8200 nM, 70 nM and 78 nM, respectively.
Take `O=C(Nc1cnccc1N1C2CCC1CC2)c1ccnc(NC(=O)C2CC2)c1` [Example 60, N-(4-(1s,4s)-7-azabicyclo[2.2.1]heptan-7-yl)pyridin-3-yl)-2-(cyclopropanecarboxamido)isonicotinamide]: the IC50 in the test with pTau (read-out: pTau) was 620 nM; on GSK3α (setting [1]) it was 5.7 nM; at GSK3β (setting [2]), 16 nM.
For `O=C(Nc1cnccc1-c1ccc(Cl)cc1)c1ccnc(NC(=O)C2CCC(F)(F)C2)c1` (stereo not drawn) [Example 231, N-(4-(4-chlorophenyl)pyridin-3-yl)-2-(3,3-difluorocyclopentanecarboxamido)isonicotinamide], the IC50 amounted to 30 nM in the test on pTau (read-out: pTau), 0.9 nM at GSK3α (setting [1]) and 0.46 nM on GSK3β.
